Assay results from patent US11673947B2, “Target tissue-specific antigen-binding molecule” (Chugai Seiyaku Kabushiki Kaisha, priority 2012, dated 2023).

Tests used:
IL-6 [1] = molecular target: T1, IL-6 (Homo sapiens, UniProt P05231); assay type: binding; parameters: purchased Kamakura Techno-Science, Inc; conditions: estimated
Procedure: Using Biacore T200 (GE Healthcare), A11 was analyzed for its interaction with human IL-6 (Kamakura Techno-Science, Inc.) in antigen-antibody reaction. Sensor chip CM5 (GE Healthcare) was immobilized with an appropriate amount of protein A/G (Invitrogen) by amine coupling. Antibodies of interest were captured by the chip to allow interaction to IL-6 as an antigen. The two types of running buffers used were 10 mmol/1 ACES, 150 mmol/l NaCl, 0.05% (w/v) Tween20, 100 μmol/l kynurenine, pH 7.4, and 10 mmol/1 ACES, 150 mmol/l NaCl, 0.05% (w/v) Tween20, pH 7.4. The interaction with IL-6 as an antigen was assessed at 37° C. The buffer used to dilute IL-6 was the same running buffer as described above.
A diluted solution of human IL-6 and a running buffer as a blank were injected at a flow rate of 5 μl/min for three minutes to allow interaction of human IL-6 with A11 captured on the sensor chip. […] The dissociation constant KD (M) of A11 was calculated for human IL-6 based on the association rate constant ka (1/Ms) and dissociation rate constant kd (1/s), both of which are kinetic parameters calculated from the sensorgram obtained by the measurement. Each parameter was calculated using the Biacore T200 Evaluation Software (GE Healthcare).
Then, the effect of kynurenine concentration on antigen-antibody reaction between A11 and human IL-6 was assessed using Biacore T200 (GE Healthcare). […]

IL-6 [2] = molecular target: T1, IL-6; assay: Biacore T200, interaction between IL-6 and kynurenine; assay type: binding; parameters: purchased Kamakura Techno-Science, Inc; conditions: kynurenine at a maximal concentration of 800 nmol/l, about 5000 RU IL-6 immobilized, 25° C.
Procedure: The interaction between IL-6 (Kamakura Techno-Science, Inc.) and kynurenine was analyzed using Biacore T200 (GE Healthcare). Sensor chip CM5 (GE Healthcare) was immobilized with about 5000 RU of IL-6 by amine coupling, and 800, 400, 200, 100, 50, or 25 nmol/l kynurenine was allowed to interact with IL-6. The running buffer used was 10 mmol/l ACES, 150 mmol/l NaCl, 0.05% (w/v) Tween20, pH 7.4. All measurements for the interaction described above were carried out at 25° C. Kynurenine was diluted using the running buffer.
About 5000 RU of IL-6 was immobilized in the above-described experiment. The molecular weights of IL-6 and kynurenine were about 20000 g/mol and about 200 g/mol, respectively. Thus, at maximum about 50 RU of kynurenine was expected to interact.

BaF/hIL-6R cells = assay: Flow cytometry, binding to membrane-type hIL-6R on BaF/hIL-6R cells; assay type: cell-based; conditions: with and without 100 μM kynurenine
Procedure: 6RNMSC1-2_F02 antibody which has an antigen-binding activity in the presence of kynurenine as described in Example 14 was assessed for its binding to soluble hIL-6R. As a first step in assessing the ADCC activity of 6RNMSC1-2_F02 to hIL-6R-expressing cells, 6RNMSC1-2_F02 was evaluated as to whether it has the ability to bind to membrane-type hIL-6R expressed in hIL-6R-expressing cells. Specifically, the binding of 6RNMSC1-2_F02 to cells of the BaF/hIL-6R line (WO2012/073992) was assayed and analyzed using a flow cytometer. An appropriate number of BaF/hIL-6R cells were prepared and blocked with PBS containing 2% FBS on ice for one hour or more. Supernatant was removed from the blocked cells by centrifugation, and 100 μl of 6RNMSC1-2_F02 or the control antibody MRA (the heavy chain and light chain sequences are shown in SEQ ID NOs: 92 and 93, respectively) was added under two conditions: in the presence or absence of a final concentration of kynurenine at 100 μM. In this step, the antibodies were contacted with cell-membrane hIL-6R on ice for 30 minutes. […] Then, in the presence or absence of kynurenine, the complex was contacted with a secondary antibody (Beckman Coulter IM1627) that recognizes the antibody constant region. […] The binding of 6RNMSC1-2_F02 to the prepared cells was assayed and analyzed using the BD FACS cant II Flow Cytometer (BD).

hIL-6R = molecular target: T2, hIL-6R (Homo sapiens, UniProt P08887); assay: IgG ELISA, binding to hIL-6R in mouse serum with or without kynurenine; conditions: mouse serum with or without kynurenine
T2 sequence (P08887 20-355 limits assumed): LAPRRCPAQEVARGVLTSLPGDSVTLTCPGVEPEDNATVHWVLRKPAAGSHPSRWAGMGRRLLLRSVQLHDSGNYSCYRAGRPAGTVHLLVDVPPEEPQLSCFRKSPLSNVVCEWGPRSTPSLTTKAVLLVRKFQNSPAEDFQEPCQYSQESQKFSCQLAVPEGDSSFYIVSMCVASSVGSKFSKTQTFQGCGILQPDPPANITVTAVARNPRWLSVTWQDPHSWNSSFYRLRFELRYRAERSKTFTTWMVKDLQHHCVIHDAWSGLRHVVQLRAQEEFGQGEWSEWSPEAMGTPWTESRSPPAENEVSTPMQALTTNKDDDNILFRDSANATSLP
Procedure: As described in Example 14, antibody 6RNMSC1-2_F02 which has antigen-binding activity in the presence of kynurenine, and the known anti-hIL-6R antibody MRA were subjected to ELISA under the two conditions described in Table 20. The antigen used was biotin-labeled hIL-6R.
First, a StreptaWell 96 microtiter plate (Roche) was coated at room temperature for one hour or more with 100 μl of PBS containing the biotin-labeled antigen. After washing with Wash buffer to remove unbound antigen from the plate, each well was blocked for one hour or more with 250 μl of Blocking Buffer. After Blocking Buffer was removed from each well, each of the purified IgGs was prepared to 2.5 μg/ml under condition 2 shown in Table 20, and aliquoted at 100 μl into the plate. The plate was allowed to stand at room temperature for one hour to allow binding of each IgG to the antigen in each well. After washing with Wash Buffer containing 100 μM kynurenine, an HRP-conjugated anti-human IgG antibody (BIOSOURCE) diluted with Sample Buffer containing kynurenine was added to each well. The plate was incubated for one hour. Following wash with Wash Buffer containing kynurenine, the TMB single solution (ZYMED) was added to each well. The chromogenic reaction in the solution of each well was terminated by adding sulfuric acid. Then, the developed color was assessed by measuring absorbance at 450 nm.

T1 sequence (P05231 30-212): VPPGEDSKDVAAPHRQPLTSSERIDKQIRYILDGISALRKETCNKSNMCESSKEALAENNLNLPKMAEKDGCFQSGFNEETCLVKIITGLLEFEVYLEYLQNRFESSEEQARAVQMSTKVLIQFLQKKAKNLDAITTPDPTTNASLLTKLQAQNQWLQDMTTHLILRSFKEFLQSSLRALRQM

Molecule | KD of kynurenine for formation of the complex consisting of A11, IL-6, and kynurenine (IL-6 [1]) | interaction with IL-6 (IL-6 [2]) | fluorescence (binding to membrane-type hIL-6R) (BaF/hIL-6R cells) | absorbance, effect of kynurenine (hIL-6R)
Nc1ccccc1C(=O)C[C@H](N)C(=O)O [kynurenine] | several tens nM to several nM | not detectable |  | 
MRA: known anti-human IL-6R antibody; SEQ ID NOs: 92 and 93 [reference compound] |  |  | detectable regardless of the presence or absence of kynurenine | the same regardless of the presence or absence of kynurenine
